How the values were obtained:
[1] = test system: Aspergillus fumigatus ATCC 13073; assay: Broth microdilution MEC; assay type: cell-based; conditions: CLSI broth microdilution, microscopy, duplicate
Experimental: (§1) Antifungal potency of the test article(s) was measured using the in vitro broth microdilution assay under test conditions described by the Clinical and Laboratory Standards Institute. Minimum Inhibitory Concentration (MIC) is defined as the lowest concentration of an agent that causes a specified reduction in visible growth of the microorganism. Minimum Effective Concentration (MEC) is defined as the lowest concentration of an agent that leads to the growth of small, rounded, compact hyphal forms, as compared to the hyphal growth typically seen in the growth control well. MIC values were determined for 9 Candida spp., and MEC values were determined for filamentous fungus species (Aspergillus fumigatus and Trichophyton rubrum). Details of the test article preparations and methodologies are described in Supplementary Material S1.
(§2) Following incubation, the test plates were visually examined and wells were scored for growth or complete growth inhibition to define the MIC values. Microscopy examination was used to determine the MEC values. Each test substance was evaluated in duplicate and the results are the duplicate test values. Vehicle-control and an active reference agent were used as blank and positive controls, respectively. […]
(§3) S1. In Vitro Testing, Test Article Preparations
(§4) The 5 mg/mL stock solution was prepared as the following. The refrigerated vial was equilibrated to room temperature. Test vial was reconstituted aseptically with 10.5 mL 0.9% NaCl. The powder was dissolved completely, mixing until a clear solution was ob-tained. The final concentration was 5.0 mg/mL of caspofungin freebase. The reconstituted solution was stable for 1 hr at room temperature. The 5 mg/mL stock solution was then […]
(§5) The refrigerated vial was equilibrated to room temperature. The powder was dis-solved completely, mixing until a clear solution was obtained. Test vial was reconstituted aseptically with 1.8 mL 0.9% NaCl. The white to off-white powder was dissolved com-pletely, mixing gently until a clear solution was obtained. The final concentration was 5.0 mg/mL of caspofungin freebase. The reconstituted solution was used within 1 hr at room temperature. The 5 mg/mL stock solution was then diluted with 0.9% NaCl to prepare the […]
(§6) 1.3. Caspofungin Diacetate
(§7) The 5 mg/mL API stock solution was prepared as the following. The refrigerated vial was equilibrated to room temperature. Test vial was filled aseptically with 1.8 mL 0.9%
(§8) NaCl. The powder was dissolved completely, mixing until a clear solution was obtained.
(§9) The final concentration was 5.0 mg/mL of caspofungin freebase. The reconstituted solu-tion was used within 1 hr at room temperature. The 5 mg/mL stock solution was then […]
(§10) g compound, corresponding to 1.2 mg active compound with a correction factor of 2.40 was added 0.375 mL of water for injection to generate the 3.2 mg/mL working stock solution for testing. The 3.2 mg/mL working stock solution was 2-fold diluted seri-ally in 0.9% NaCl to prepare a total of eleven 50-fold stock solutions, concentrations rang-ing from 3.2 to 0.003 mg/mL. A 4 μL aliquot of each dilution was added to 196 μL of broth medium seeded with the organism suspension in wells of a 96 well plate (fungal cell count: 1 x 10^3 to 1 x 10^4 colony forming units per mL). The final volume was 200 μL in each […]

[2] = test system: Aspergillus fumigatus ATCC204305; assay: Broth microdilution MEC; assay type: cell-based; conditions: CLSI broth microdilution, microscopy, duplicate
Experimental: as §1, §2, §3, §4, §5, §6, §7, §8, §9, §10

[3] = test system: Trichophyton rubrum ATCC 10218; assay: Broth microdilution MEC; assay type: cell-based; conditions: CLSI broth microdilution, microscopy, duplicate
Experimental: as §1, §2, §3, §4, §5, §6, §7, §8, §9, §10

[4] = Aerosol characterization (PARI LC Star nebulizer, QCM cascade impactor); assay type: physicochemical; conditions: 10 mg/mL caspofungin diacetate, determined once
Experimental: Aerosol particle size distribution was determined once with a quartz crystal microbalance (QCM) cascade impactor (California Measurements Inc., Sierra Madre, CA, USA) equipped with 10 stages to collect size-segregated samples. The mass median aerodynamic diameter (MMAD) and geometric standard deviation (GSD) were calculated from the mass accumulated on each collection stage of the QCM. Each formulation was tested by aerosolizing it with a PARI LC Star nebulizer (PARI Respiratory Equipment, Inc., Midlothian, VA, USA) connected to compressed air at 28 psi. The air flow to the nebulizer was about 6.2 L/min. Approximately 7 mL of the test formulation solution was placed in the nebulizer, weighed and connected to the air supply for aerosolization. The nebulizer was operated for 12 min, and post weighed. The generated aerosol was delivered into a plenum with a narrow opening. A stream of test aerosol was sampled from the plenum for particle size determination. A Quartz Crystal Microbalance based cascade impactor (TSI Inc., Shoreview, MN, USA) was used for these determinations. Details of the formulation preparations are described in Supplementary Material S3.
S3. Aerosol Characterization
(PVP K30, 100 mg/mL) were prepared. […]
osols for the purpose of comparing particle size.
S3.1. Preparation of Caspofungin Diacetate Stock Solution: […]
and recorded once during the exposure. […]

## CC[C@H](C)C[C@H](C)CCCCCCCCC(=O)N[C@H]1C[C@@H](O)[C@@H](NCCN)NC(=O)[C@@H]2[C@@H](O)CCN2C(=O)[C@H]([C@H](O)CCN)NC(=O)[C@H]([C@H](O)[C@@H](O)c2ccc(O)cc2)NC(=O)[C@@H]2C[C@@H](O)CN2C(=O)[C@H]([C@@H](C)O)NC1=O [Caspofungin Diacetate]
[1]
  MEC: 0.0625 µg/mL
[2]
  MEC: 0.125 µg/mL
[3]
  MEC: 0.125 µg/mL
[4]
  MMAD (Mass Median Aerodynamic Diameter): 1.15 microns

— article PMC8067632, “Assessment and Development of the Antifungal Agent Caspofungin for Aerosolized Pulmonary Delivery” (Pharmaceutics, 2021)
